Measurements published in article PMC7251097, “Aspartate/asparagine-β-hydroxylase: a high-throughput mass spectrometric assay for discovery of small molecule inhibitors” (Scientific Reports, 2020).
Entries after “also recorded” stand apart in the source; their conditions may differ. Like-named read-outs stand apart in the source and are kept apart here.

Biological target: T1, His6-AspH315–758 (human aspartate/asparagine-β-hydroxylase, AspH) (Homo sapiens, UniProt Q12797)
T1 construct: N-Terminally His6-tagged human AspH315–758 (His6-AspH315–758) was produced in E. coli BL21 (DE3) cells; made in house; host or cells: E. coli BL21 (DE3), pET-28a(+) vector
T1 sequence (Q12797 315-758): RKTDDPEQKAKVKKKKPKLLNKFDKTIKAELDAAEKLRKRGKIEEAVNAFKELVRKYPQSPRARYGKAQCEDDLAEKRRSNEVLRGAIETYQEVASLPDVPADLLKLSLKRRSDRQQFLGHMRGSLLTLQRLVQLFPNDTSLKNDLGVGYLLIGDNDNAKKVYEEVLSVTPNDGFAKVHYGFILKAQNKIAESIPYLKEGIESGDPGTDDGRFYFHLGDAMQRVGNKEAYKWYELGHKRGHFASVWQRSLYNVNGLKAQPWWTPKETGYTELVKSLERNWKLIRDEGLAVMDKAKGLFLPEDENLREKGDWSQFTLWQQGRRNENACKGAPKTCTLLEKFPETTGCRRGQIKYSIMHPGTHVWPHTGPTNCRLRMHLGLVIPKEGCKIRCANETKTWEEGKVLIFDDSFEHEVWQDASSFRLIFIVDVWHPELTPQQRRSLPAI
Assay: SPE-MS AspH inhibition assay (LOPAC screen at fixed 20 μM and IC50 dose-response), hydroxylation of cyclic peptide hFX-CP101–119
Type: biochemical

[1] = LOPAC compound at 20uM, plate 2, conversion of substrate peptide
[2] = LOPAC compound at 20uM, plate 2, normalised to DMSO and 2,4-PDCA controls
[3] = LOPAC compound at fixed 20 uM, plate 1, normalised to DMSO and 2,4-PDCA controls
[4] = LOPAC compound at fixed 20 uM, substrate conversion, plate 1
[5] = LOPAC Plate 4, compound at 20 uM, substrate conversion
[6] = LOPAC Plate 4, compound at 20 uM
[7] = LOPAC compound at 20uM, plate 3, conversion of substrate peptide

## CS(=O)(=O)O.Cn1cc(C(F)(F)F)nc1-c1ccc(OCC(O)CNCCOc2ccc(O)c(C(N)=O)c2)cc1 (stereo not drawn) [CGP 20712A methanesulfonate]
[1]
  Plate 2 (% conversion): 36.56%
[2]
  Plate 2 (% inhibition): -1.81%

## CC(C)(CO)Cc1cc(C(C)(C)C)c(O)c(C(C)(C)C)c1 [CGP-7930]
[3]
  Plate 1 (% inhibition): -11.33%
[4]
  Plate 1 (% conversion): 39.68%

## CC(C)(C=O)Cc1cc(C(C)(C)C)c(O)c(C(C)(C)C)c1 [CGP-13501]
[3]
  Plate 1 (% inhibition): 0.58%
[4]
  Plate 1 (% conversion): 35.68%

## CCn1cnc2c(Nc3cccc(Cl)c3)nc(N[C@@H]3CCCC[C@@H]3N)nc21.Cl [CGP-74514A hydrochloride]
  Plate 1 (% conversion): 10.02%
  Plate 1 (% inhibition): 76.98%

## COc1ccc(OCC2c3cc(OC)c(OC)cc3CCN2C(=O)c2cccc(Cl)c2)cc1 (stereo not drawn) [CIQ]
[5]
  % conversion: 36.09%

## N#Cc1cc2nc([O-])c([O-])nc2cc1[N+](=O)[O-].[Na+].[Na+] [CNQX disodium]
[1]
  Plate 2 (% conversion): 39.74%
[2]
  Plate 2 (% inhibition): -11.30%

## CCc1cccc(N(C)C(N)=Nc2cccc3ccccc23)c1 [CNS-1102]
[3]
  Plate 1 (% inhibition): -9.21%
[4]
  Plate 1 (% conversion): 38.96%

## COc1ccc(/C=C/c2nc(NCCCN(C)C)c3ccccc3n2)cc1.Cl.Cl.O [CP-31398 dihydrochloride hydrate]
[5]
  % conversion: 42.00%

## COc1ccc(/C=C/c2nc(NCCCN(C)C)c3ccccc3n2)cc1 [CP-31398]
  Plate 5 (% conversion): 45.27%
  Plate 5 (% inhibition): -26.30%

## CN[C@@H]1CC[C@@H](c2ccc(Br)cc2)c2ccccc21.Cl [CP-53631]
  Plate 5 (% conversion): 37.76%
  Plate 5 (% inhibition): -4.23%

## CC[C@H]1OC(=O)[C@H](C)[C@@H](O[C@H]2C[C@@](C)(OC)[C@@H](O)[C@H](C)O2)[C@H](C)[C@@H](O[C@@H]2O[C@H](C)C[C@H](NC)[C@H]2O)[C@](C)(O)C[C@@H](C)CN(C)[C@H](C)[C@@H](O)[C@]1(C)O [CP-64434]
  Plate 5 (% conversion): 37.11%
  Plate 5 (% inhibition): -2.34%

## Nc1nc2ccc(Cl)cc2n2c(-c3ccccc3)nnc12 [CP-66713]
  Plate 3 (% conversion): 39.27%
  Plate 5 (% conversion): 29.84%
  Plate 5 (% inhibition): 19.04%

## CN(C)C(=O)[C@H](O)[C@H](Cc1ccccc1)NC(=O)c1cc2cc(Cl)ccc2[nH]1 [CP-91149]
  Plate 2 (% conversion): 37.12%
  Plate 5 (% conversion): 35.66%
  Plate 5 (% inhibition): 1.91%
20 µM
  Plate 2 (% inhibition): -3.47%

## Cl.Cl.O=c1ccc2[nH]cc(C3=CCNCC3)c2[nH]1 [CP-93129 dihydrochloride hydrate]
  % conversion: 37.25%
[6]
  % inhibition: -2.28%

## O=c1ccc2[nH]cc(C3=CCNCC3)c2[nH]1 [CP-93129]
  Plate 5 (% conversion): 38.32%
  Plate 5 (% inhibition): -5.90%

## COc1ccccc1CN[C@@H]1CCCN[C@@H]1c1ccccc1.Cl.Cl.O [CP-100263 dihydrochloride hydrate]
[6]
  % inhibition: -15.48%
[5]
  % conversion: 41.75%

## COc1ccccc1CN[C@H]1CCCN[C@H]1c1ccccc1 [CP-100263]
  Plate 5 (% conversion): 33.08%
  Plate 5 (% inhibition): 9.51%

## CC(C)(C)OC(=O)NC1[C@H]2CNC[C@@H]12 (stereo partly drawn) [CP-101537]
  Plate 3 (% conversion): 33.25%
  Plate 5 (% conversion): 36.34%
  Plate 5 (% inhibition): -0.06%

## CN1CCC[C@@H]1Cc1c[nH]c2ccc(Nc3ncccc3[N+](=O)[O-])cc12 [CP-135807]
  % conversion: 37.42%
  Plate 5 (% conversion): 32.28%
  Plate 5 (% inhibition): 11.85%

## CCCCN(CC)c1nc(C)nc2c1c(C)cn2-c1c(C)cc(C)cc1C.Cl [CP-154526 hydrochloride]
[7]
  Plate 3 (% conversion): 39.02%

## CCCCN(CC)c1nc(C)nc2c1c(C)cn2-c1c(C)cc(C)cc1C [CP-154526]
Plate 5 (Pfitzer), test compounds at fixed 20 μM
  Plate 5 (% inhibition): -9.05%
Plate 5 (Pfitzer), test compounds at fixed 20 μM, mean conversion DMSO 32.88
  Plate 5 (% conversion): 39.39%

## Fc1ccc2[nH]c(CN3CCN(c4ccccn4)CC3)cc2c1 [CP-226269]
  % conversion: 39.74%
  Plate 5 (% conversion): 37.75%
  Plate 5 (% inhibition): -4.22%

## O.O.O=C(Nc1ccc2c(c1)CCN(Cc1ncn[nH]1)C2)c1ccccc1-c1ccc(C(F)(F)F)cc1 [CP-346086 dihydrate]
[6]
  % inhibition: -27.35%
[5]
  % conversion: 45.80%

## O=C(Nc1ccc2c(c1)CCN(Cc1ncn[nH]1)C2)c1ccccc1-c1ccc(C(F)(F)F)cc1 [CP-346086]
  Plate 5 (% conversion): 46.02%
  Plate 5 (% inhibition): -28.53%

## COCCOc1cc2nc[nH]c(=O)c2cc1OCCOC [CP-380736]
  Plate 1 (% conversion): 40.54%
  Plate 1 (% inhibition): -13.90%
  Plate 5 (% conversion): 31.91%
  Plate 5 (% inhibition): 12.94%

## CC(C)(NS(=O)(=O)c1ccc(Oc2ccc(F)cc2)cc1)C(=O)NO [CP-471474]
  Plate 5 (% conversion): 38.13%
  Plate 5 (% inhibition): -5.33%

## CC(C)c1ccc(CC(=O)N2CCC[C@@H](c3cccc(OC(C)(C)C(=O)O)c3)C2)cc1 [CP-775146]
  Plate 5 (% conversion): 34.51%
  Plate 5 (% inhibition): 5.31%

## CN(CCC(Oc1ccc(C(=O)c2nccs2)cc1)c1ccc(Cl)cc1)CC(=O)O (stereo not drawn) [CP-802079]
  Plate 5 (% conversion): 32.57%
  Plate 5 (% inhibition): 11.01%

## CC(C)c1c(-c2ccccc2)[nH]c2c(C#N)cnn2c1=O [CPI-455, reference compound]
50 nM His6-AspH315–758, 1.0 μM hFX-CP101–119, 3 μM 2OG, 2 μM Fe(II), 50 mM HEPES pH 7.5, 20 °C, mean ± SD, n = 2 (2,4-PDCA n = 10)
  IC50 [μM]: inactive

## O=C(c1ccc(Cl)cc1)N1CCN(c2ccc([N+](=O)[O-])c3ncccc23)CC1 [CPNQ]
[1]
  Plate 2 (% conversion): 35.99%
[2]
  Plate 2 (% inhibition): -0.10%

## CC1(C)CCC(NC(=O)[C@@H](N)CCC(=O)O)CC1 [CR 2249]
[7]
  Plate 3 (% conversion): 40.87%

## O=C(c1ccc2c(c1)OCCO2)N1CCCCC1 [CX 546]
[1]
  Plate 2 (% conversion): 39.70%
[2]
  Plate 2 (% inhibition): -11.19%

## [Ca+2].[Cl-].[Cl-] [Ca(II), CaCl2, reference compound]
50 nM AspH, 2.0 μM Fe(II), Zn(OAc)2, NiSO4, CoCl2, MnCl2, CaCl2 as metal sources, n = 2, mean ± SD
  IC50 metal ion, AspH [μM]: do not show any effect; also recorded: does not perturb AspH activity; also recorded: inactive

## O=C(/C=C/c1ccc(O)c(O)c1)OCCc1ccccc1 [Caffeic acid phenethyl ester, reference compound]
AspH activity, fixed compound concentration 20 μM, initial LOPAC screen, 0.5%v/v DMSO, read-out: Inhibition at 20 µM [%]
  inhibition at 20 µM: 98.5%
[3]
  Plate 1 (% inhibition): 98.53%
[4]
  Plate 1 (% conversion): 2.78%

## Cn1c(=O)c2c(ncn2C)n(C)c1=O [Caffeine]
[3]
  Plate 1 (% inhibition): -5.72%
[4]
  Plate 1 (% conversion): 37.79%

## CNc1ccc2oc(C[C@H]3O[C@@]4(CC[C@H]3C)O[C@H]([C@H](C)C(=O)c3ccc[nH]3)[C@H](C)C[C@H]4C)nc2c1C(=O)O [Calcimycin, calcimycin, reference compound]
  Plate 1 (% conversion): 2.02%
IC50 [μM]
  IC50: 4.19 ± 0.1 µM
read-out: Inhibition at 20 µM [%]
  inhibition at 20 µM: 101%

## Clc1ccc(C(c2ccc(Cl)cc2)n2cc[n+](CC(OCc3ccc(Cl)cc3Cl)c3ccc(Cl)cc3Cl)c2)cc1 (stereo not drawn) [Calmidazolium chloride]
  Plate 1 (% conversion): 58.50%
[3]
  Plate 1 (% inhibition): -67.38%

## O=c1[nH]c(=S)[nH]c(-c2ccccc2)c1Cc1c(O)ccc2ccccc12 [Cambinol]
[1]
  Plate 2 (% conversion): 25.50%
LOPAC compound at 20uM, plate 2, normalised to DMSO and 2,4-PDCA controls, read-out: Plate 2 (% inhibition)
  inhibition at 20 µM: 31.2%

## CC1(C(=O)O)C2CCC(O2)C1(C)C(=O)O (stereo not drawn) [Cantharidic Acid]
  Plate 1 (% conversion): 25.92%
  Plate 1 (% inhibition): 29.65%

## C[C@@]12C(=O)OC(=O)[C@]1(C)[C@H]1CC[C@@H]2O1 [Cantharidin]
  Plate 1 (% conversion): 17.40%
  Plate 1 (% inhibition): 55.02%
